According to Sander's compilation of Henry's law constants:

Columns and labels:
[1] = Henry solubility constant Hcp at 291 K (mol/(m3 Pa))
[2] = Henry solubility constant Hcp at 288 K (mol/(m3 Pa))
[3] = Henry solubility constant Hcp at 293 K (mol/(m3 Pa))
[4] = Henry solubility constant Hcp at 298.15 K (mol/(m3 Pa))
[5] = Henry solubility constant Hcp at 296 K (mol/(m3 Pa))
[6] = Henry solubility constant Hcp at 295 K (mol/(m3 Pa))
[7] = Henry solubility constant Hcp at 303 K (mol/(m3 Pa)); settings: reference: Saylor et al. (1938)
[8] = Henry solubility constant Hcp at 278 K (mol/(m3 Pa))
[9] = Henry solubility constant Hcp at 310 K (mol/(m3 Pa)); settings: reference: McIntosh and Heffron (2000)
[10] = reference: Treves et al. (2000)
[11] = reference: Miller and Stuart (2000)
[12] = reference: de Wolf and Lieder (1998)
[13] = reference: Yurteri et al. (1987)
[14] = reference: Bakierowska and Trzeszczyński (2003)
[15] = reference: Bierwagen and Keller (2001)
[16] = reference: Bissonette et al. (1990)
[17] = reference: Brown and Wasik (1974)
[18] = reference: Görgényi et al. (2002)
[19] = reference: Hartkopf and Karger (1973)
[20] = reference: Keeley et al. (1988)
[21] = reference: Lodge and Danso (2007)
[22] = reference: Mackay et al. (1979)
[23] = reference: Nielsen et al. (1994)
[24] = reference: Perlinger et al. (1993)
[25] = reference: Robbins et al. (1993)
[26] = reference: Sanemasa et al. (1981)
[27] = reference: Tsibul’skii et al. (1979)
[28] = reference: Turner et al. (1996)
[29] = reference: Vitenberg et al. (1975)
[30] = reference: Warner et al. (1980)
[31] = reference: Wasik and Tsang (1970)
[32] = reference: O’Sullivan et al. (1996)

CCC(O)CO[N+](=O)[O-] (stereo unspecified) [1-nitrooxy-2-butanol]
Henry solubility constant Hcp at 291 K [1, 10]: 89

CCC(CO)O[N+](=O)[O-] (stereo unspecified) [2-nitrooxy-1-butanol]
Henry solubility constant Hcp at 291 K [1, 10]: 88

CC(C)O [2-propanol]
Henry solubility constant Hcp at 288 K ([2]; reference: Pividal et al. (1992)): 1.4
Henry solubility constant Hcp at 293 K ([3]; reference: Yu (1992)): 0.98
Henry solubility constant Hcp ([4]; reference: Butler et al. (1935)): 1.2
Henry solubility constant Hcp ([4]; reference: Kim et al. (2000)): 1.1
Henry solubility constant Hcp ([4]; reference: Lin and Chou (2006)): 1.3
Henry solubility constant Hcp ([4]; reference: Snider and Dawson (1985)): 1.2

O=[N+]([O-])OCCCCO [4-nitrooxy-1-butanol]
Henry solubility constant Hcp at 291 K [1, 10]: 290

CC(O)CCO[N+](=O)[O-] (stereo unspecified) [4-nitrooxy-2-butanol]
Henry solubility constant Hcp at 291 K [1, 10]: 130

c1ccccc1 [benzene]
Henry solubility constant Hcp at 296 K ([5]; reference: Anderson (1992)): 0.0018
Henry solubility constant Hcp at 296 K [5, 11]: 0.0018
Henry solubility constant Hcp at 295 K [6, 12]: 0.0022
Henry solubility constant Hcp at 303 K [7]: 0.0015
Henry solubility constant Hcp at 293 K ([3]; reference: Vitenberg et al. (1974)): 0.0012
Henry solubility constant Hcp at 293 K ([3]; reference: Yu (1992)): 0.0019
Henry solubility constant Hcp at 293 K [3, 13]: 0.0013
Henry solubility constant Hcp ([4]; reference: Alaee et al. (1996)): 0.0018
Henry solubility constant Hcp ([4]; reference: Allen et al. (1998)): 0.0018
Henry solubility constant Hcp [4, 14]: 0.0018
Henry solubility constant Hcp [4, 15]: 0.0019
Henry solubility constant Hcp [4, 16]: 0.0016
Henry solubility constant Hcp [4, 17]: 0.0017
Henry solubility constant Hcp ([4]; reference: Cooling et al. (1992)): 0.0017
Henry solubility constant Hcp ([4]; reference: Ervin et al. (1980)): 0.0012
Henry solubility constant Hcp ([4]; reference: Ettre et al. (1993)): 0.0018
Henry solubility constant Hcp ([4]; reference: Green and Frank (1979)): 0.0018
Henry solubility constant Hcp [4, 18]: 0.0017
Henry solubility constant Hcp [4, 19]: 0.0021
Henry solubility constant Hcp [4, 20]: 0.0017
Henry solubility constant Hcp ([4]; reference: Khalfaoui and Newsham (1994b)): 0.0017
Henry solubility constant Hcp ([4]; reference: Lau et al. (2010)): 0.0014
Henry solubility constant Hcp ([4]; reference: Lei et al. (2004)): 0.0014
Henry solubility constant Hcp ([4]; reference: Li et al. (2008)): 0.0018
Henry solubility constant Hcp [4, 21]: 0.0025
Henry solubility constant Hcp [4, 22]: 0.0018
Henry solubility constant Hcp [4, 23]: 0.002
Henry solubility constant Hcp ([4]; reference: Park et al. (1997)): 0.0014
Henry solubility constant Hcp ([4]; reference: Peng and Wan (1997)): 0.0019
Henry solubility constant Hcp ([4]; reference: Peng and Wan (1998)): 0.0022
Henry solubility constant Hcp [4, 24]: 0.0017
Henry solubility constant Hcp [4, 25]: 0.0018
Henry solubility constant Hcp [4, 26]: 0.0017
Henry solubility constant Hcp ([4]; reference: Sieg et al. (2009)): 0.0017
Henry solubility constant Hcp [4, 27]: 0.0016
Henry solubility constant Hcp ([4]; reference: Tsonopoulos and Wilson (1983)): 0.0018
Henry solubility constant Hcp [4, 28]: 0.0016
Henry solubility constant Hcp [4, 29]: 0.0018
Henry solubility constant Hcp [4, 30]: 0.0018
Henry solubility constant Hcp [4, 31]: 0.0016

BrBr [bromine (molecular)]
Henry solubility constant Hcp at 288 K ([2]; reference: Jones (1911)): 0.014
Henry solubility constant Hcp at 293 K ([3]; reference: Jenkins and King (1965)): 0.0096
Henry solubility constant Hcp ([4]; reference: Hill et al. (1968)): 0.0068
Henry solubility constant Hcp ([4]; reference: Kelley and Tartar (1956)): 0.007
Henry solubility constant Hcp ([4]; reference: Winkler (1899)): 0.0079
Henry solubility constant Hcp ([4]; reference: Winkler (1906)): 0.0078

CC(=O)OO [ethanoic peroxyacid]
Henry solubility constant Hcp at 278 K ([8]; reference: Sauer (1997)): 24
Henry solubility constant Hcp ([4]; reference: Lind and Kok (1994)): 6.5
Henry solubility constant Hcp [4, 32]: 8.3

CCOO [ethyl hydroperoxide]
Henry solubility constant Hcp at 278 K ([8]; reference: Sauer (1997)): 11
Henry solubility constant Hcp [4, 32]: 3.3

O=COO [methanoic peroxyacid]
Henry solubility constant Hcp at 278 K ([8]; reference: Sauer (1997)): 29

COO [methyl hydroperoxide]
Henry solubility constant Hcp at 278 K ([8]; reference: Sauer (1997)): 12
Henry solubility constant Hcp ([4]; reference: Li et al. (2004)): 2.5
Henry solubility constant Hcp ([4]; reference: Lind and Kok (1994)): 3
Henry solubility constant Hcp ([4]; reference: Magi et al. (1997)): > 6.9
Henry solubility constant Hcp [4, 32]: 3.1

Cc1ccccc1 [methylbenzene]
Henry solubility constant Hcp at 296 K ([5]; reference: Anderson (1992)): 0.0015
Henry solubility constant Hcp at 296 K ([5]; reference: David et al. (2000)): 0.0015
Henry solubility constant Hcp at 296 K [5, 11]: 0.0016
Henry solubility constant Hcp at 295 K [6, 12]: 0.002
Henry solubility constant Hcp at 310 K [9]: 0.00085
Henry solubility constant Hcp at 293 K ([3]; reference: Yu (1992)): 0.0037
Henry solubility constant Hcp at 293 K [3, 13]: 0.0017
Henry solubility constant Hcp ([4]; reference: Allen et al. (1998)): 0.0015
Henry solubility constant Hcp [4, 14]: 0.0017
Henry solubility constant Hcp [4, 15]: 0.0017
Henry solubility constant Hcp [4, 16]: 0.0014
Henry solubility constant Hcp ([4]; reference: Bobadilla et al. (2003)): 0.0021
Henry solubility constant Hcp [4, 17]: 0.0016
Henry solubility constant Hcp ([4]; reference: Ervin et al. (1980)): 0.0015
Henry solubility constant Hcp ([4]; reference: Ettre et al. (1993)): 0.0015
Henry solubility constant Hcp ([4]; reference: Garbarini and Lion (1985)): 0.0015
Henry solubility constant Hcp [4, 18]: 0.0015
Henry solubility constant Hcp [4, 19]: 0.002
Henry solubility constant Hcp [4, 20]: 0.0016
Henry solubility constant Hcp ([4]; reference: Kish et al. (2013)): 0.0015
Henry solubility constant Hcp ([4]; reference: Kutsuna and Kaneyasu (2021)): 0.0015
Henry solubility constant Hcp ([4]; reference: Lau et al. (2010)): 0.0013
Henry solubility constant Hcp ([4]; reference: Lee et al. (2013)): 0.0017
Henry solubility constant Hcp ([4]; reference: Lei et al. (2004)): 0.0014
Henry solubility constant Hcp ([4]; reference: Li et al. (2008)): 0.0015
Henry solubility constant Hcp ([4]; reference: Lin and Chou (2006)): 0.0015
Henry solubility constant Hcp [4, 21]: 0.0014
Henry solubility constant Hcp [4, 22]: 0.0015
Henry solubility constant Hcp [4, 23]: 0.0016
Henry solubility constant Hcp ([4]; reference: Park et al. (1997)): 0.0013
Henry solubility constant Hcp ([4]; reference: Peng and Wan (1997)): 0.0017
Henry solubility constant Hcp ([4]; reference: Peng and Wan (1998)): 0.0021
Henry solubility constant Hcp [4, 24]: 0.0015
Henry solubility constant Hcp ([4]; reference: Ramachandran et al. (1996)): 0.0015
Henry solubility constant Hcp [4, 25]: 0.0015
Henry solubility constant Hcp [4, 26]: 0.0016
Henry solubility constant Hcp ([4]; reference: Schoene and Steinhanses (1985)): 0.0012
Henry solubility constant Hcp ([4]; reference: Sieg et al. (2009)): 0.0015
Henry solubility constant Hcp [4, 27]: 0.0015
Henry solubility constant Hcp [4, 28]: 0.0014
Henry solubility constant Hcp ([4]; reference: Vane and Giroux (2000)): 0.0019
Henry solubility constant Hcp [4, 29]: 0.0019
Henry solubility constant Hcp [4, 30]: 0.0017
Henry solubility constant Hcp [4, 31]: 0.0017

[O]N=O [nitrogen dioxide]
Henry solubility constant Hcp at 295 K ([6]; reference: Lee and Schwartz (1981)): 6.9e-05
Henry solubility constant Hcp at 288 K ([2]; reference: Komiyama and Inoue (1980)): 0.00023
Henry solubility constant Hcp ([4]; reference: Cheung et al. (2000)): 0.00012

O=[O+][O-] [ozone]
Henry solubility constant Hcp at 291 K ([1]; reference: Schöne (1873)): 0.00012
Henry solubility constant Hcp at 293 K ([3]; reference: Gurol and Singer (1982)): 0.00017
Henry solubility constant Hcp at 293 K ([3]; reference: Levanov et al. (2008)): 0.00011
Henry solubility constant Hcp ([4]; reference: Andreozzi et al. (1996)): 9.2e-05
Henry solubility constant Hcp ([4]; reference: Briner and Perrottet (1939)): 0.00013
Henry solubility constant Hcp ([4]; reference: Fischer and Tropsch (1917)): 0.0002
Henry solubility constant Hcp ([4]; reference: Gershenzon et al. (2001)): 0.00011
Henry solubility constant Hcp ([4]; reference: Kilpatrick et al. (1956)): 9.9e-05
Henry solubility constant Hcp ([4]; reference: Kosak-Channing and Helz (1983)): 0.00011
Henry solubility constant Hcp ([4]; reference: Luther (1905)): 8e-05
Henry solubility constant Hcp ([4]; reference: Mailfert (1894)): 0.00012
Henry solubility constant Hcp ([4]; reference: Rischbieter et al. (2000)): 9.9e-05
Henry solubility constant Hcp ([4]; reference: Sotelo et al. (1989)): 0.00012
Henry solubility constant Hcp ([4]; reference: Stumm (1958)): 0.00012

O=C(Cl)C(Cl)(Cl)Cl [trichloroacetylchloride]
Henry solubility constant Hcp at 278 K ([8]; reference: De Bruyn et al. (1995a)): 0.02
Henry solubility constant Hcp ([4]; reference: George et al. (1994a)): 0.02
Henry solubility constant Hcp ([4]; reference: Mirabel et al. (1996)): 0.02
